In the NIST ThermoML archive (doi:10.1021/je400968v):

Assays:
[1] = mn = molality of the nth substance listed, in mol/kg; conditions: 101 kPa, Liquid; for viscosity: Capillary tube (Ostwald / Ubbelohde) method; for mass density: Vibrating tube method
[2] = 101 kPa, Liquid; for viscosity: Capillary tube (Ostwald / Ubbelohde) method; for mass density: Vibrating tube method

Cc1c(N)cccc1N [2,6-diaminotoluene] + CCCCO
[1]
Conditions	mass density, 293.15 K [kg/m3]	mass density, 303.15 K [kg/m3]	mass density, 313.15 K [kg/m3]	mass density, 323.15 K [kg/m3]	mass density, 333.15 K [kg/m3]	viscosity, 293.15 K [mPa·s]	viscosity, 303.15 K [mPa·s]	viscosity, 313.15 K [mPa·s]	viscosity, 323.15 K [mPa·s]	viscosity, 333.15 K [mPa·s]
m1 = 0.05	811.28	803.61	795.81	787.85	779.68	2.922	2.233	1.728	1.356	1.075
m1 = 0.0995	812.81	805.13	797.31	789.34	781.16	2.941	2.246	1.735	1.361	1.078
m1 = 0.1499	814.34	806.66	798.81	790.84	782.65	2.96	2.259	1.746	1.368	1.085
m1 = 0.1994	815.82	808.13	800.27	792.28	784.08	2.978	2.268	1.755	1.374	1.087
m1 = 0.2495	817.27	809.58	801.7	793.7	785.5	3.001	2.291	1.764	1.379	1.093

Cc1c(N)cccc1N [2,6-diaminotoluene] + O
[1]
Conditions	mass density, 293.15 K [kg/m3]	mass density, 303.15 K [kg/m3]	mass density, 313.15 K [kg/m3]	mass density, 323.15 K [kg/m3]	mass density, 333.15 K [kg/m3]	viscosity, 293.15 K [mPa·s]	viscosity, 303.15 K [mPa·s]	viscosity, 313.15 K [mPa·s]	viscosity, 323.15 K [mPa·s]	viscosity, 333.15 K [mPa·s]
m1 = 0.0501	998.9	996.32	992.86	988.65	983.81	1.032	0.813	0.665	0.557	0.4741
m1 = 0.1002	999.59	996.97	993.49	989.24	984.38	1.053	0.832	0.677	0.563	0.479
m1 = 0.1502	1000.27	997.61	994.1	989.82	984.89	1.066	0.838	0.681	0.568	0.483
m1 = 0.2	1000.92	998.24	994.69	990.38	985.37	1.081	0.85	0.69	0.573	0.487
m1 = 0.2497	1001.57	998.86	995.27	990.93	985.79	1.09	0.854	0.694	0.575	0.488
m1 = 0.2993	1002.21	999.47	995.84	991.46	986.15	1.112	0.87	0.702	0.585	0.495

Cc1ccc(N)cc1N [4-methyl-1,3-benzendiamine] + CCCCO
[1]
Conditions	mass density, 293.15 K [kg/m3]	mass density, 303.15 K [kg/m3]	mass density, 313.15 K [kg/m3]	mass density, 323.15 K [kg/m3]	mass density, 333.15 K [kg/m3]	viscosity, 293.15 K [mPa·s]	viscosity, 303.15 K [mPa·s]	viscosity, 313.15 K [mPa·s]	viscosity, 323.15 K [mPa·s]	viscosity, 333.15 K [mPa·s]
m1 = 0.0497	811.16	803.49	795.7	787.74	779.59	2.922	2.237	1.731	1.357	1.076
m1 = 0.0997	812.62	804.93	797.13	789.15	781	2.939	2.246	1.736	1.362	1.079
m1 = 0.1501	814.06	806.37	798.55	790.56	782.41	2.954	2.258	1.746	1.367	1.083
m1 = 0.1999	815.48	807.77	799.94	791.94	783.78	2.972	2.269	1.751	1.372	1.087
m1 = 0.2491	816.86	809.14	801.3	793.29	785.12	2.994	2.279	1.759	1.377	1.091

Cc1ccc(N)cc1N [4-methyl-1,3-benzendiamine] + O
[1]
Conditions	mass density, 293.15 K [kg/m3]	mass density, 303.15 K [kg/m3]	mass density, 313.15 K [kg/m3]	mass density, 323.15 K [kg/m3]	mass density, 333.15 K [kg/m3]	viscosity, 293.15 K [mPa·s]	viscosity, 303.15 K [mPa·s]	viscosity, 313.15 K [mPa·s]	viscosity, 323.15 K [mPa·s]	viscosity, 333.15 K [mPa·s]
m1 = 0.0503	998.84	996.26	992.81	988.59	983.71	1.018	0.81	0.662	0.554	0.472
m1 = 0.0998	999.45	996.84	993.36	989.11	984.2	1.035	0.822	0.671	0.562	0.479
m1 = 0.1503	1000.06	997.41	993.9	989.62	984.68	1.051	0.831	0.679	0.571	0.484
m1 = 0.1999	1000.64	997.95	994.42	990.11	985.14	1.069	0.842	0.686	0.578	0.49

CCCCO [butan-1-ol]
[2]
Conditions	mass density [kg/m3]	viscosity [mPa·s]
293.15 K	809.69	2.908
303.15 K	802.04	2.225
313.15 K	794.27	1.723
323.15 K	786.32	1.351
333.15 K	778.16	1.071

CCCCO [butan-1-ol] + Cc1c(N)cccc1N
[1], m2 = 0
Conditions	mass density [kg/m3]	viscosity [mPa·s]
293.15 K	809.69	2.908
303.15 K	802.04	2.225
313.15 K	794.27	1.723
323.15 K	786.32	1.351
333.15 K	778.16	1.071

CCCCO [butan-1-ol] + Cc1ccc(N)cc1N
[1], m2 = 0
Conditions	mass density [kg/m3]	viscosity [mPa·s]
293.15 K	809.69	2.908
303.15 K	802.04	2.225
313.15 K	794.27	1.723
323.15 K	786.32	1.351
333.15 K	778.16	1.071

CCO [ethanol]
[2]
Conditions	mass density [kg/m3]	viscosity [mPa·s]
293.15 K	789.56	1.179
303.15 K	780.98	0.972
313.15 K	772.22	0.806
323.15 K	763.29	0.672
333.15 K	754.18	0.564

CCO [ethanol] + Cc1c(N)cccc1N
[1], m2 = 0
Conditions	mass density [kg/m3]	viscosity [mPa·s]
293.15 K	789.56	1.179
303.15 K	780.98	0.972
313.15 K	772.22	0.806
323.15 K	763.29	0.672
333.15 K	754.18	0.564

CCO [ethanol] + Cc1ccc(N)cc1N
[1], m2 = 0
Conditions	mass density [kg/m3]	viscosity [mPa·s]
293.15 K	789.56	1.179
303.15 K	780.98	0.972
313.15 K	772.22	0.806
323.15 K	763.29	0.672
333.15 K	754.18	0.564

CCCO [propan-1-ol]
[2]
Conditions	mass density [kg/m3]	viscosity [mPa·s]
293.15 K	803.86	2.171
303.15 K	795.54	1.696
313.15 K	787.37	1.338
323.15 K	779.01	1.067
333.15 K	770.42	0.859

CCCO [propan-1-ol] + Cc1c(N)cccc1N
[1], m2 = 0
Conditions	mass density [kg/m3]	viscosity [mPa·s]
293.15 K	803.86	2.171
303.15 K	795.54	1.696
313.15 K	787.37	1.338
323.15 K	779.01	1.067
333.15 K	770.42	0.859

CCCO [propan-1-ol] + Cc1ccc(N)cc1N
[1], m2 = 0
Conditions	mass density [kg/m3]	viscosity [mPa·s]
293.15 K	803.86	2.171
303.15 K	795.54	1.696
313.15 K	787.37	1.338
323.15 K	779.01	1.067
333.15 K	770.42	0.859

O [water]
[2]
Conditions	mass density [kg/m3]	viscosity [mPa·s]
293.15 K	–	1.002
303.15 K	–	0.798
313.15 K	–	0.653
323.15 K	988.04	0.547
333.15 K	983.2	0.467

O [water] + Cc1c(N)cccc1N
[1], m2 = 0
Conditions	mass density [kg/m3]	viscosity [mPa·s]
293.15 K	–	1.002
303.15 K	–	0.798
313.15 K	–	0.653
323.15 K	988.04	0.547
333.15 K	983.2	0.467

O [water] + Cc1ccc(N)cc1N
[1], m2 = 0
Conditions	mass density [kg/m3]
323.15 K	988.04
333.15 K	983.2
